PubChem BioAssay AID1259411 (Chemical Carcinogenesis Research Information System (CCRIS), 2018)
Activity calls are given as the source filed them. How the calls were made is not given here.

Test system: rodent carcinogenicity bioassays, tumor incidence
Test: CCRIS carcinogenicity studies
From the text: The CCRIS database contains chemical records with carcinogenicity, mutagenicity, tumor promotion, and tumor inhibition test results. It was developed by the National Cancer Institute (NCI). Data are derived from studies cited in primary journals, current awareness tools, NCI reports, and other sources. Test results have been reviewed by experts in carcinogenesis and mutagenesis.
CCRIS provides historical information from the years 1985 - 2011. It is no longer updated.
This is an archive assay for CCRIS carcinogenicity studies.

SMILES: c1ccc2cc3c4ccccc4c4ccccc4c3cc2c1
- carcinogen call (Species: MOUSE, Strain/Sex: B6C3F1/MALE, Route: INTRAPERITONEAL, Dose: 0, 400 NMOL IN 35 µL DMSO ON DAYS 1 (1/7 TOTAL DOSE), 8 (2/7 TOTAL DOSE), AND 15 (4/7 TOTAL DOSE) AFTER BIRTH (STUDY DUR): inactive; negative

SMILES: CN(C)c1nc(=O)n(C2CCCCC2)c(=O)n1C
- carcinogen call (Species: DOG, Strain/Sex: BEAGLE/FEMALE, Route: ORAL, Dose: 0, 200, 1000 PPM IN DIET FOR 90 D OR 5000 PPM FOR 1 WK, THEN 2500 PPM FOR 4 D IN WK 2 THEN 3750 PPM FOR 3 D FOLLOWED BY, Dose: 0, 200, 1000 PPM IN DIET FOR 90 D OR 5000 PPM FOR 1 WK, THEN 2500 PPM FOR 4 D IN WK 2 THEN 3750 PPM FOR 3 D FOLLOWED BY): inactive; negative
- carcinogen call (Species: DOG, Strain/Sex: BEAGLE/MALE, Route: ORAL, Dose: 0, 200, 1000 PPM IN DIET FOR 90 D OR 5000 PPM FOR 1 WK, THEN 2500 PPM FOR 4 D IN WK 2 THEN 3750 PPM FOR 3 D FOLLOWED BY, Dose: 0, 200, 1000 PPM IN DIET FOR 90 D OR 5000 PPM FOR 1 WK, THEN 2500 PPM FOR 4 D IN WK 2 THEN 3750 PPM FOR 3 D FOLLOWED BY): inactive; negative
- carcinogen call (Species: MOUSE, Strain/Sex: CD-1/FEMALE, Route: ORAL, Dose: 0, 200, 2500, 10000 PPM IN DIET FOR 2 YR (STUDY DURATION: 2 YR), Dose: 0, 200, 2500, 10000 PPM IN DIET FOR 2 YR (STUDY DURATION: 2 YR)): inactive; negative
- carcinogen call (Species: MOUSE, Strain/Sex: CD-1/MALE, Route: ORAL, Dose: 0, 200, 2500, 10000 PPM IN DIET FOR 2 YR (STUDY DURATION: 2 YR), Dose: 0, 200, 2500, 10000 PPM IN DIET FOR 2 YR (STUDY DURATION: 2 YR)): inactive; negative
- carcinogen call (Species: RAT, Strain/Sex: CRL-CD/FEMALE, Route: ORAL, Dose: 0, 200, 1000, 2500 PPM IN DIET FOR 2 YR (STUDY DURATION: 2 YR), Dose: 0, 200, 1000, 2500 PPM IN DIET FOR 2 YR (STUDY DURATION: 2 YR)): inactive; negative
- carcinogen call (Species: RAT, Strain/Sex: CRL-CD/MALE, Route: ORAL, Dose: 0, 200, 1000, 2500 PPM IN DIET FOR 2 YR (STUDY DURATION: 2 YR), Dose: 0, 200, 1000, 2500 PPM IN DIET FOR 2 YR (STUDY DURATION: 2 YR)): inactive; negative

SMILES: CCCN(C)N=O
- carcinogen call (Species: HAMSTER, Strain/Sex: SYRIAN/FEMALE, Route: GAVAGE, Dose: 0, 2.1 MG/KG 1/WK FOR 23-30 WK (TOTAL DOSE: 0; 0.6 MMOL) (STUDY DURATION: LIFETIME), Dose: 0, 2.1 MG/KG 1/WK FOR 23-30 WK (TOTAL DOSE: 0; 0.6 MMOL) (STUDY DURATION: LIFETIME), Tumor Site: Type of Lesion: LIVER: HEPATOCELLULAR ADENOMA, HEMANGIOSARCOMA, NASAL MUCOSA: CARCINOMA): active; positive
- carcinogen call (Species: HAMSTER, Strain/Sex: SYRIAN/MALE,FEMALE, Route: SUBCUTANEOUS, Dose: 12.5, 25, 50 MG/KG 1/WK, Dose: 12.5, 25, 50 MG/KG 1/WK, Tumor Site: Type of Lesion: NASAL CAVITY: CARCINOMA, EPIDERMOID TUMOR, MUCOEPIDERMOID TUMOR, TRACHEA: PAPILLARY POLYP, LUNG: ADENOMA, CARCINOMA, LIV, Tumor Site: Type of Lesion: NASAL CAVITY: CARCINOMA, EPIDERMOID TUMOR, MUCOEPIDERMOID TUMOR, TRACHEA: PAPILLARY POLYP, LUNG: ADENOMA, CARCINOMA, LIV): active; positive
- carcinogen call (Species: HAMSTER, Strain/Sex: SYRIAN/MALE, Route: GAVAGE, Dose: 0, 2.1 MG/KG 1/WK FOR 23-30 WK (TOTAL DOSE: 0; 0.6 MMOL) (STUDY DURATION: LIFETIME), Dose: 0, 2.1 MG/KG 1/WK FOR 23-30 WK (TOTAL DOSE: 0; 0.6 MMOL) (STUDY DURATION: LIFETIME), Tumor Site: Type of Lesion: LIVER: HEPATOCELLULAR ADENOMA, HEMANGIOSARCOMA, LUNG: ALVEOLAR/BRONCHIAL ADENOMA, NASAL MUCOSA: CARCINOMA, Tumor Site: Type of Lesion: LIVER: HEPATOCELLULAR ADENOMA, HEMANGIOSARCOMA, LUNG: ALVEOLAR/BRONCHIAL ADENOMA, NASAL MUCOSA: CARCINOMA): active; positive
- carcinogen call (Species: MOUSE, Strain/Sex: NMRI/FEMALE, Route: SUBCUTANEOUS, Dose: 0.05, 0.1, 0.2 OF LD50 (77.1 MG/KG) 1/WK FOR LIFE, Dose: 0.05, 0.1, 0.2 OF LD50 (77.1 MG/KG) 1/WK FOR LIFE, Tumor Site: Type of Lesion: NASAL CAVITY: SQUAMOUS CELL PAPILLOMA, SQUAMOUS CELL CARCINOMA, LARYNX: PAPILLOMA, CARCINOMA (IN SITU), SQUAMOUS CELL CA): active; positive

SMILES: CCOP(=S)(OCC)Oc1nc(Cl)n(C(C)C)n1
- carcinogen call (Species: Mouse, Strain/Sex: Crl:CD-1(ICR)BR/Female (60/Group), Route: Oral, Dose: 0, 0.3, 1.0, 30, 300 ppm of 94.9% of isazophos in diet for 18 mo, study duration 18 mo, Dose: 0, 0.3, 1.0, 30, 300 ppm of 94.9% of isazophos in diet for 18 mo, study duration 18 mo): inactive; negative
- carcinogen call (Species: Mouse, Strain/Sex: Crl:CD-1(ICR)BR/Male (60/Group), Route: Oral, Dose: 0, 0.3, 1.0, 30, 300 ppm (reduced to 250 at wk 23) ppm of 94.9% of isazophos in diet for 18 mo, study duration 18 mo, Dose: 0, 0.3, 1.0, 30, 300 ppm (reduced to 250 at wk 23) ppm of 94.9% of isazophos in diet for 18 mo, study duration 18 mo): inactive; negative
- carcinogen call (Species: Rat, Strain/Sex: Crl:CD(SD)BR/Female (60/Group), Route: Oral, Dose: 0, 0.1, 1.0, 300 reduced to 250 at wk 22 and then to 200 ppm at wk 66 of 94.9% of isazophos in diet for 24 mo, study dur, Dose: 0, 0.1, 1.0, 300 reduced to 250 at wk 22 and then to 200 ppm at wk 66 of 94.9% of isazophos in diet for 24 mo, study dur): inactive; negative
- carcinogen call (Species: Rat, Strain/Sex: Crl:CD(SD)BR/Male (60/Group), Route: Oral, Dose: 0, 0.1, 1.0, 300 ppm of 94.9% of isazophos in diet for 24 mo, study duration 24 mo, Dose: 0, 0.1, 1.0, 300 ppm of 94.9% of isazophos in diet for 24 mo, study duration 24 mo): inactive; negative

SMILES: C#CCN1C(=O)COc2cc(F)c(N3C(=O)C4=C(CCCC4)C3=O)cc21
- carcinogen call (Species: Mouse, Strain/Sex: Crj:CD-1 (ICR)/Female (51/Group), Route: Oral, Dose: 0, 36.6, 346.4, 859.1 mg/kg/day of 94.8% flumioxazin in diet for 78 wk, study duration 78 wk, Dose: 0, 36.6, 346.4, 859.1 mg/kg/day of 94.8% flumioxazin in diet for 78 wk, study duration 78 wk): inactive; negative
- carcinogen call (Species: Mouse, Strain/Sex: Crj:CD-1 (ICR)/Male (51/Group), Route: Oral, Dose: 0, 31.1, 314.9, 754.1 mg/kg/day of 94.8% flumioxazin in diet for 78 wk, study duration 78 wk, Dose: 0, 31.1, 314.9, 754.1 mg/kg/day of 94.8% flumioxazin in diet for 78 wk, study duration 78 wk): inactive; negative
- carcinogen call (Species: Rat, Strain/Sex: Crj:CD(SD)/Female (50/Group), Route: Oral, Dose: 0, 2.2, 21.8, 43.6 mg/kg/day of 94.8% flumioxazin in diet for up to 2 yr, study duration 2 yr, Dose: 0, 2.2, 21.8, 43.6 mg/kg/day of 94.8% flumioxazin in diet for up to 2 yr, study duration 2 yr): inactive; negative
- carcinogen call (Species: Rat, Strain/Sex: Crj:CD(SD)/Male (50/Group), Route: Oral, Dose: 0, 1.8, 18.0, 36.5 mg/kg/day of 94.8% flumioxazin in diet for up to 2 yr, study duration 2 yr, Dose: 0, 1.8, 18.0, 36.5 mg/kg/day of 94.8% flumioxazin in diet for up to 2 yr, study duration 2 yr): inactive; negative

SMILES: Nc1ccc(Sc2ccc(N)cc2)cc1
- carcinogen call (Species: MOUSE, Strain/Sex: B6C3F1/FEMALE, Route: ORAL, Dose: 0, 2500, 5000 PPM IN DIET, Dose: 0, 2500, 5000 PPM IN DIET, Tumor Site: Type of Lesion: LIVER: HEPATOCELLULAR CARCINOMA, THYROID GLAND: FOLLICULAR CELL ADENOMA OR CARCINOMA): active; positive
- carcinogen call (Species: MOUSE, Strain/Sex: B6C3F1/MALE, Route: ORAL, Dose: 0, 2500, 5000 PPM IN DIET, Dose: 0, 2500, 5000 PPM IN DIET, Tumor Site: Type of Lesion: LIVER: HEPATOCELLULAR ADENOMA OR CARCINOMA, THYROID GLAND: FOLLICULAR CELL ADENOMA OR CARCINOMA): active; positive
- carcinogen call (Species: RAT, Strain/Sex: F344/FEMALE, Route: ORAL, Dose: 0, 1500, 3000 PPM IN DIET, Dose: 0, 1500, 3000 PPM IN DIET, Tumor Site: Type of Lesion: THYROID GLAND: FOLLICULAR CELL CARCINOMA, UTERUS: ADENOCARCINOMA, NOS): active; positive
- carcinogen call (Species: RAT, Strain/Sex: F344/MALE, Route: ORAL, Dose: 0, 1500, 3000 PPM IN DIET (68-72 WEEKS), Dose: 0, 1500, 3000 PPM IN DIET (68-72 WEEKS), Tumor Site: Type of Lesion: LIVER: HEPATOCELLULAR ADENOMA OR CARCINOMA, COLON: ADENOCARCINOMA, NOS, THYROID GLAND: FOLLICULAR CELL ADENOMA OR CARCIN, Tumor Site: Type of Lesion: LIVER: HEPATOCELLULAR ADENOMA OR CARCINOMA, COLON: ADENOCARCINOMA, NOS, THYROID GLAND: FOLLICULAR CELL ADENOMA OR CARCIN): active; positive
